According to patent US20220273628A1, “EFFECTS OF LYSERGIC ACID DIETHYLAMIDE (LSD) AND OF LSD ANALOGS TO ASSIST PSY[…] G[…] DISORDER OR OTHER ANXIETY NOT RELATED TO LIFE-T[…]” (Universitätsspital Basel, priority 2021, published 2022):
Entries after “also recorded” stand apart in the source; their conditions may differ.

Experiments:
[1] = system: dopaminergic D1-3 receptors; conditions: cited from earlier work
[2] = system: patients with life-threatening illness and related anxiety; conditions: cited from earlier work
5-HT2A receptor = 5-HT2A receptor (Homo sapiens, UniProt P28223); conditions: cited from earlier work
Chain of 5-HT2A receptor (P28223 whole entry): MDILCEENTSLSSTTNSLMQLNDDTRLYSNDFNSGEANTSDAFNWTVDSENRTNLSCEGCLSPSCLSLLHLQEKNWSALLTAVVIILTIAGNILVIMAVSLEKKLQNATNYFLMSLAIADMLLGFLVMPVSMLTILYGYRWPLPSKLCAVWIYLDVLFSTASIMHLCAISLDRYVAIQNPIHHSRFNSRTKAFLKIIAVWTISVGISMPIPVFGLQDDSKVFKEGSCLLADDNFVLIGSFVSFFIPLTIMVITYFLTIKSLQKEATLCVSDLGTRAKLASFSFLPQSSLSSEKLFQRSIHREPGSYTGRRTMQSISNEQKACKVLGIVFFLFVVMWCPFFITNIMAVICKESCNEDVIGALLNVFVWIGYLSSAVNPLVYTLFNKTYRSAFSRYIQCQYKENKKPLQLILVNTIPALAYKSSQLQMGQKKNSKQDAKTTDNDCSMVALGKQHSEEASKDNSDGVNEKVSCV

adrenergic α1 receptors = conditions: cited from earlier work
healthy volunteers = conditions: cited from earlier work
amygdala reactivity = conditions: fMRI; cited from earlier work
healthy subjects = conditions: cited from earlier work
[3] = system: patients with anxiety disorder without somatic illness; test: Same phase II study: adverse events; type: in vivo, human
Source text: Subjects were asked to report any adverse events (AEs) during the sessions or between study sessions at the beginning of the next session/visit and at the end of study (EOS) visit. The investigator rated hallucinogen-specific AEs that occurred during the session using a checklist adapted from (Gasser et al., 2014; Griffiths et al., 2006; Schmid et al., 2015). Peak effects were rated at the end of the session based on the patients description and investigators' observation by the investigator as “not reported”, “mild”, “moderate”, or “severe” for: headache, dizziness, dry mouth, nausea, anxiety, paranoid thinking, emotional distress, emotional lability, blurred vision, chills/feeling cold, impaired balance. Heart rate and blood pressure were measured at 2-hourly intervals (Grob et al., 2011).
AEs were described and recorded on the subject's CRF, regardless of the severity or relationship to the IMP. AEs were rated for severity and the potential relationship to the study interventions was evaluated by the investigator according standard criteria. Subjects with AEs were treated appropriately. Abnormal laboratory values not explained by the patients' disease had to be repeated until normal or until the abnormality caould be explained and the subject's safety was not at risk.

[4] = within-subjects, after two LSD sessions
[5] = follow-up visits, not including treatment sessions

Question: For `CCN(CC)C(=O)[C@@H]1C=C2c3cccc4[nH]cc(c34)C[C@H]2N(C)C1` [LSD, lysergic acid diethylamide], which “activity at dopaminergic D1-3 receptors” value [1] is on record?
Answer: stimulates

Question: What about the “STAI anxiety compared with baseline” value ([2]; 2 months after the two LSD sessions, 200 μg per os) of the same compound?
Answer: significant decrease

Question: And the “mild affect lability, share of LSD sessions” value ([2]; in vivo)?
Answer: 14%

Question: And the “mild gait disturbance, share of LSD sessions” value ([2]; in vivo)?
Answer: 32%

Question: What about the “mild-to-moderate emotional distress, share of LSD sessions” value ([2]; in vivo) of the same compound?
Answer: 36%

Question: And the “moderate anxiety, share of LSD sessions” value ([2]; in vivo)?
Answer: 23%

Question: And the “moderately feeling cold, share of LSD sessions” value ([2]; in vivo)?
Answer: 45%

Question: What about the “number of migraine attacks” value ([2]; two migraine patients) of the same compound?
Answer: markedly reduced

Question: What about the “STAI state anxiety score after LSD (mean±SD)” value [2, 4] of the same compound?
Answer: 41.5±9.7

Question: And the “STAI trait anxiety score after LSD (mean±SD)” value [2, 4]?
Answer: 45.3±10.3

Question: What about the “STAI state anxiety score before LSD (mean±SD)” value ([2]; within-subjects, baseline) of the same compound?
Answer: 53.1±13.5

Question: And the “STAI trait anxiety score before LSD (mean±SD)” value ([2]; within-subjects, baseline)?
Answer: 53.3±11.3

Question: And the “decrease in STAI trait anxiety score (mean±SD)” value ([2]; within-subjects)?
Answer: 8.0±7.7 points

Question: What about the “reduction in STAI state anxiety score (mean±SD)” value ([2]; within-subjects) of the same compound?
Answer: 11.6±9.5 points

Question: What about the “activity at the 5-HT2A receptor” value (5-HT2A receptor) of the same compound?
Answer: partial 5-HT2A receptor agonist; also recorded: agonists

Question: And the “activity at adrenergic α1 receptors” value (adrenergic α1 receptors)?
Answer: stimulates

Question: What about the “optimism and trait openness compared with placebo” value (healthy volunteers; 75 μg intravenously, at two weeks) of the same compound?
Answer: increased

Question: What about the “blood pressure and heart rate” value (healthy volunteers; 40-80 μg intravenously, 10 healthy volunteers) of the same compound?
Answer: slightly elevated

Question: And the “amygdala reactivity to fearful stimuli” value (amygdala reactivity)?
Answer: decreased

Question: What about the “duration of alterations in waking consciousness” value (healthy subjects; 200 μg oral, 16 healthy subjects) of the same compound?
Answer: 12 h

Question: What about the “blood pressure, heart rate, body temperature, pupil size, plasma cortisol, prolactin, oxytocin, and epinephrine” value (healthy subjects; 200 μg oral) of the same compound?
Answer: significantly increased

Question: What about the “time until adverse effects completely subsided” value (healthy subjects; 200 μg oral) of the same compound?
Answer: ≤ 72 h

Question: And the “difficulty concentrating, number of subjects of 16 participants” value (healthy subjects; 200 μg, acute AE)?
Answer: 10

Question: And the “dizziness, number of subjects of 16 participants” value (healthy subjects; 200 μg, acute AE)?
Answer: 7

Question: What about the “headache, number of subjects of 16 participants” value (healthy subjects; 200 μg, acute AE) of the same compound?
Answer: 9

Question: And the “nausea, number of subjects of 16 participants” value (healthy subjects; 200 μg, acute AE)?
Answer: 4

Question: And the “transient moderate anxiety, number of subjects of 16 participants” value (healthy subjects; 200 μg, acute AE)?
Answer: 4

Question: What about the “duration of LSD effects after administration” value (healthy subjects; 200 μg) of the same compound?
Answer: up to 12 hours

Question: And the “time of peak LSD effects” value (healthy subjects; 200 μg)?
Answer: 2 h

Question: And the “tolerability after dose lowered” value ([3]; 100 μg instead of 200 μg, patient with paranoia SAE)?
Answer: tolerated well

Question: And the “fatigue, total of reported AEs” value ([3]; all follow-up visits of the period, not including treatment sessions)?
Answer: 9

Question: And the “anxiety at onset of the LSD effect” value ([3]; during the treatment session)?
Answer: two

Question: What about the headache ([3]; during the treatment session) of the same compound?
Answer: one

Question: What about the nausea ([3]; during the treatment session) of the same compound?
Answer: two

Question: What about the strong anxiety/paranoia ([3]; during the treatment session) of the same compound?
Answer: one

Question: What about the “SAE: paranoia during the LSD session (expected reaction to LSD)” value ([3]; first LSD session, 200 μg) of the same compound?
Answer: one

Question: What about the “common cold, total of reported AEs” value [3, 5] of the same compound?
Answer: 7

Question: What about the “depression, total of reported AEs” value [3, 5] of the same compound?
Answer: 3

Question: And the “difficulty concentrating, total of reported AEs” value [3, 5]?
Answer: 5

Question: What about the “headache, total of reported AEs” value [3, 5] of the same compound?
Answer: 6

Question: And the “nausea, total of reported AEs” value [3, 5]?
Answer: 3

Question: What about the “vertigo, total of reported AEs” value [3, 5] of the same compound?
Answer: 5
